Reference: patent US20240010729A1, “COMBINATION THERAPY OF A PD-1 ANTAGONIST AND LAG3 ANTAGONIST AND LENVATINIB OR A PHARMACEUTICALLY ACCEPTABLE SALT THEREOF FOR TREATING PATIENTS WITH CANCER” (MERCK SHARP & DOHME LLC, priority 2020, published 2024)

Legend:
CT26 colorectal model = test: CT26 mouse syngeneic tumor model (tumor growth inhibition, survival); details: CT26, Day 17; lenvatinib 10 mg/kg oral QD, antibodies 10 mg/kg i.p. every 5 days
Excerpt: Prior to treatment initiation, female BALB/c mice (for CT26 study) or C57BL/6J mice (for KPC-2838c3 study) aged 8 weeks weighing between 18 to 21 grams were anesthetized and subcutaneously injected into the rear flank with 0.3×10^6 CT26 or 0.5×10^6 KPC-2838c3 log-phase sub-confluent cells. When the mean tumor volume of inoculated animals reached approximately 100 mm^3 (II days later for CT26, 15 days later for KPC-2838c3) mice were pair-matched into 8 treatment groups consisting of 10 mice per group. Treatment groups consisted of: 1) 0.5% methylcellulose (Vehicle)+Isotype mouse IgG1 antibody (migG1); 2) Vehicle+anti-PD-1 mIgG1 antibody (muDX400); 3) Vehicle+anti-LAG3 mIgG1 antibody (28G10); 4) Lenvatinib+isotype; 5) Vehicle+anti-PD-1+anti-LAG3; 6) Lenvatinib+anti-PD-1; 7) Lenvatinib+anti-LAG3; 8) Lenvatinib+anti-PD-1+anti-LAG3. Vehicle and lenvatinib were orally gavage-dosed once daily (QD) at 10 mg/kg body weight. Isotype control, a mouse monoclonal antibody specific for adenoviral hexon of the isotype IgG1, as well as anti-PD-1 and anti-LAG3 antibodies were dosed intraperitoneally every 5 days at 10 mg/kg body weight. Start of treatments was considered Day 0 and dosing based on schedules continued as described until Day 35. Caliper measurements of tumors and body weights were captured twice weekly. […]

[1] = test system: mCRC that is non MSI-H/pMMR; details: third line mCRC patients; cited from earlier work

Row | Compound | TGI (tumor growth inhibition) respective to Vehicle-treated animals (CT26 colorectal model) | 6-month PFS rate [1]
1 | COc1cc2nccc(Oc3ccc(NC(=O)NC4CC4)c(Cl)c3)c2cc1C(N)=O [Lenvatinib, 4-[3-chloro-4-(cyclopropylaminocarbonyl)aminophenoxy]-7-methoxy-6-quinolinecarboxamide] | 54% | 
2 | CNC(=O)c1cc(Oc2ccc(NC(=O)Nc3ccc(Cl)c(C(F)(F)F)c3)c(F)c2)ccn1 [regorafenib] |  | ~15%
